Consider one molecule from patent publication US7062219B2, “Protein fragment complementation assays for high-throughput and high-content screening” (Odyssey Thera Inc., priority 1997, dated 2006).

“Also recorded” adds a separate entry of the source. Non-standard residues stand in square brackets, D forms with d. Residues, ends and D or L forms follow the SMILES beside them. Nle = CCCC[C@H](N)C(=O)O

For assay [1], the system named is NFkB (p65/p50) complex. In words: transient high-content YFP PCA for NFkB (p65/p50) nuclear translocation in CHO cells. Format: cell-based. As to conditions: 40 micrograms/ml ALLN 1 hour prior to and during TNF. As for the experimental part:
Fusion genes were subcloned into pCDNA3.1 expression vectors (Invitrogen) with a Zeocin selectable marker for YFP[1]-p50, and a hygromycin marker for YFP[2]-p65. A linker consisting of (GGGGS)2 (SEQ ID No.1) separated the genes of interest and the YFP fragments. CHO DUKXB11 cells were seeded into 96 well plates at a density of 8×10e3 cells/well and transfected 24 hours later with YFP[1] and YFP[2] fusion genes at a 1:1 molar ratio using Fugene (Boehringer Mannheim) according to manufacturer's directions. A total of 20 ng DNA per well was used for each sample. Thirty-six hours post-transfection, cells were serum starved by incubation in 0.25% FBS-supplemented aMEM for an additional 16–18 hours. For cytokine induction, certain cells were treated with 25 ng/ml mTNF (Boehringer Mannheim) for 30 min. To examine the effect of proteasome inhibition on NFkB nuclear translocation, the serum-starved cells were treated with 40 micrograms/ml ALLN (Calbiochem) for 1 hour prior to and during the mTNF alpha induction period. The cells were rinsed with PBS and the subcellular location of NFkB complexes was visualized and images acquired using a Nikon Eclipse TE2000 fluorescence microscope at excitation and emission wavelengths of 485 nm and 527 nm, respectively. Quantitative analysis of fluorescence intensities was performed using Metamorph software (Universal Imaging, Molecular Devices, Inc.)

Assay [2] has as its system p65/p50 complex. Description: DHFR PCA for NFkB (p65/p50) translocation in CHO DUKXB11 cells. As to conditions: 40 micrograms/ml ALLN. The assay is classed as cell-based, mouse and human. The method, then: Coding regions of NFkB subunits p65 and p50 (corresponding to N-terminal 436 amino acids) were PCR amplified from mouse and human cDNAs, respectively, and ligated in-frame downstream of a 15 amino acid flexible linker (GGGGS)3 (SEQ ID No.30) followed by DHFR fragment F[1,2] or F[3] in pCDNA3.1zeo (Invitrogen). IkBa was subcloned separately into pCDNA3.1. For transient expression of these genes, 8×10e4 DHFR-deficient CHO DXB11 cells were seeded into 12 well plates and transfected 24 hours later with [F1,2]-p65, [F3]-p50, and IkBa at the molar ratio of 1:1:1 for each fusion construct using Fugene (Boehringer Mannheim) according to manufacturer's instructions. For controls, where indicated, empty pCDNA3.1 was used in place of IkBa. A total of 1 microgram of DNA was used per well.
Forty-eight hours post-transfection, complexes of F[1,2]-p65 and [F3]-p50 were detected by fluorescence microscopy. […]
To examine the effect of proteasome inhibition on NFkB nuclear translocation, the transiently transfected cells expressing the DHFR PCA were treated with 40 micrograms/ml ALLN (Calbiochem) for 1 hr prior to TxR-MTX labeling and for the subsequent duration of the experiment. The cells were rinsed with PBS and the subcellular location of NFkB complexes were visualized using a Nikon Eclipse TE2000 fluorescence microscope at excitation and emission wavelengths of 580 nm and 625 nm, respectively. […]

With `CCCC[C@@H](C=O)NC(=O)[C@H](CC(C)C)NC(=O)[C@H](CC(C)C)NC(C)=O` [ALLN] (Ac-Leu-Leu-[Nle]-aldehyde), the “effect on TNF-induced cytoplasmic-to-nuclear translocation of NFkB complexes” value in assay [1] is “inhibition of the TNF response; also recorded: inhibited”. In addition, in assay [2], the “effect on TNF-induced cytoplasmic-to-nuclear translocation of NFkB complexes in DHFR PCA” value was “inhibition of the nuclear translocation; also recorded: inhibits”.
